The assay has as its system MOLM-13 cells. The assay can be described thus: MOLM-13 cell viability assay (CellTiter-Glo). The format is cell-based. The note with it: Homo sapiens, MOLM-13, 72 h, 3 days, concentration of 1 μM, read-out: Antiproliferative Activity (inhibition, MOLM-13 cell viability). In short, it runs like this: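 MOLM-13 AML cells in RPMI 1640 with 10% FBS, seeded at 2,500 cells/well and exposed to compound or DMSO for 3 days at 37° C, 5% CO2. Viability read as CellTiter-Glo luminescence after 10 min shaking.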
In the case of `CC(C)(C)c1ccc(CCCC(=O)NCc2scc3c2CN(C2CCC(=O)NC2=O)C3=O)cc1` (stereo not drawn) [II-84, 4-(4-(tert-butyl)phenyl)-N-((5-(2,6-dioxopiperidin-3-yl)-4-oxo-5,6-dihydro-4H-thieno[3,4-c]pyrrol-1-yl)methyl)butanamide], the cytotoxicity at 1 µM was below 25%. The figure for `Cc1ccc(C(=O)C(=O)NCc2scc3c2CN(C2CCC(=O)NC2=O)C3=O)cc1Cl` (stereo not drawn) [Compound I-6, 2-(3-chloro-4-methylphenyl)-N-((5-(2,6-dioxopiperidin-3-yl)-4-oxo-5,6-dihydro-4H-thieno[3,4-c]pyrrol-1-yl)methyl)-2-oxoacetamide] is 25 to 50%. Take `CC(C)c1ccc(CC(=O)NCc2scc3c2CN(C2CCC(=O)NC2=O)C3=O)cc1` (stereo not drawn) [II-74, N-((5-(2,6-dioxopiperidin-3-yl)-4-oxo-5,6-dihydro-4H-thieno[3,4-c]pyrrol-1-yl)methyl)-2-(4-isopropylphenyl)acetamide]: the cytotoxicity at 1 µM is below 25%. The figure for `O=C1CCC(N2Cc3c(CNC(=O)C(=O)c4ccc(Br)cc4)cccc3C2=O)C(=O)N1` (stereo not drawn) [Compound I-106, 2-(4-bromophenyl)-N-((2-(2,6-dioxopiperidin-3-yl)-1-oxoisoindolin-4-yl)methyl)-2-oxoacetamide] is below 25%; for `Cc1cc(NC(=O)NCc2cc3c(s2)C(=O)N(C2CCC(=O)NC2=O)C3)ccc1N1CCCC1` (stereo not drawn) [II-27, 1-((5-(2,6-dioxopiperidin-3-yl)-6-oxo-5,6-dihydro-4H-thieno[2,3-c]pyrrol-2-yl)methyl)-3-(3-methyl-4-(pyrrolidin-1-yl)phenyl)urea] it is below 25%.

`Cc1ccc(NC(=O)NCc2cc3c(s2)C(=O)N(C2CCC(=O)N(COC(=O)[C@H](N)C(C)C)C2=O)C3)cc1Cl` (stereo partly drawn) [II-82, (3-(2-((3-(3-chloro-4-methylphenyl)ureido)methyl)-6-oxo-4,6-dihydro-5H-thieno[2,3-c]pyrrol-5-yl)-2,6-dioxopiperidin-1-yl)methyl D-valinate]: the cytotoxicity at 1 µM is above 80%.

Regarding `O=C(CN1CCOCC1)NCc1scc2c1CN(C1CCC(=O)NC1=O)C2=O` (stereo not drawn) [II-78, N-((5-(2,6-dioxopiperidin-3-yl)-4-oxo-5,6-dihydro-4H-thieno[3,4-c]pyrrol-1-yl)methyl)-2-morpholinoacetamide], the cytotoxicity at 1 µM is below 25%. The value for `Cc1ccc(C=CC(=O)NCc2cc3c(s2)C(=O)N(C2CCC(=O)NC2=O)C3)cc1Cl` (stereo not drawn) [II-33, 3-(3-chloro-4-methylphenyl)-N-((5-(2,6-dioxopiperidin-3-yl)-6-oxo-5,6-dihydro-4H-thieno[2,3-c]pyrrol-2-yl)methyl)propenamide] was below 25%. `CC1(c2ccc(C(=O)C(=O)NCc3scc4c3CN(C3CCC(=O)NC3=O)C4=O)cc2)CC1` (stereo not drawn) [Compound I-42, N-((5-(2,6-dioxopiperidin-3-yl)-4-oxo-5,6-dihydro-4H-thieno[3,4-c]pyrrol-1-yl)methyl)-2-(4-(1-methylcyclopropyl)phenyl)-2-oxoacetamide]: the cytotoxicity at 1 µM was in the range of 50 to 80%. The figure for `O=C1CCC(N2Cc3c(CNC(=O)C(=O)c4ccccc4)cccc3C2=O)C(=O)N1` (stereo not drawn) [Compound I-74, N-((2-(2,6-dioxopiperidin-3-yl)-1-oxoisoindolin-4-yl)methyl)-2-oxo-2-phenylacetamide] is below 25%; for `COc1ccc(CC(=O)NCc2scc3c2CN(C2CCC(=O)NC2=O)C3=O)cc1C(C)C` (stereo not drawn) [II-63, N-((5-(2,6-dioxopiperidin-3-yl)-4-oxo-5,6-dihydro-4H-thieno[3,4-c]pyrrol-1-yl)methyl)-2-(3-isopropyl-4-methoxyphenyl)acetamide] it is above 80%. The value for `O=C1CCC(N2Cc3c(csc3CNC(=O)C(=O)c3ccccc3)C2=O)C(=O)N1` (stereo not drawn) [Compound I-8, 2-phenyl-N-((5-(2,6-dioxopiperidin-3-yl)-4-oxo-5,6-dihydro-4H-thieno[3,4-c]pyrrol-1-yl)methyl)-2-oxoacetamide] was below 25%; that for `CC(C)(C)c1ccc(C(=O)C(=O)NCc2cccc3c2C(=O)N(C2CCC(=O)NC2=O)C3=O)cc1` (stereo not drawn) [Compound I-48, 2-(4-(tert-butyl)phenyl)-N-((2-(2,6-dioxopiperidin-3-yl)-1,3-dioxoisoindolin-4-yl)methyl)-2-oxoacetamide] was below 25%. For the compound `O=C1CCC(N2Cc3c(CNC(=O)C(=O)c4cccc(Cl)c4)cccc3C2=O)C(=O)N1` (stereo not drawn) [Compound I-88, 2-(3-chlorophenyl)-N-((2-(2,6-dioxopiperidin-3-yl)-1-oxoisoindolin-4-yl)methyl)-2-oxoacetamide], the cytotoxicity at 1 µM is below 25%. The figure for `CCCOc1ccc(C(N)C(=O)NCc2scc3c2CN(C2CCC(=O)NC2=O)C3=O)cc1` (stereo not drawn) [II-112, 2-amino-N-((5-(2,6-dioxopiperidin-3-yl)-4-oxo-5,6-dihydro-4H-thieno[3,4-c]pyrrol-1-yl)methyl)-2-(4-propoxyphenyl)acetamide] is below 25%; for `CC(C)(C)C1CCC(C(=O)C(=O)NCc2ccc3c(c2)CN(C2CCC(=O)NC2=O)C3=O)CC1` (stereo not drawn) [Compound I-68, 2-(4-(tert-butyl)cyclohexyl)-N-((2-(2,6-dioxopiperidin-3-yl)-1-oxoisoindolin-5-yl)methyl)-2-oxoacetamide] it is below 25%. The value for `CCN(CC)c1cc(NC(=O)NCc2cc3c(s2)C(=O)N(C2CCC(=O)NC2=O)C3)ccc1C` (stereo not drawn) [II-47, 1-(3-(diethylamino)-4-methylphenyl)-3-((5-(2,6-dioxopiperidin-3-yl)-6-oxo-5,6-dihydro-4H-thieno[2,3-c]pyrrol-2-yl)methyl)urea] was above 80%; that for `Cc1ccc(CC(=O)NCc2scc3c2CN(C2CCC(=O)NC2=O)C3=O)cc1Cl` (stereo not drawn) [II-24, 2-(3-chloro-4-methylphenyl)-N-((5-(2,6-dioxopiperidin-3-yl)-4-oxo-5,6-dihydro-4H-thieno[3,4-c]pyrrol-1-yl)methyl)acetamide] was below 25%; that for `Cc1cc(CCCC(=O)NCc2scc3c2CN(C2CCC(=O)NC2=O)C3=O)ccc1N(C)C` (stereo not drawn) [II-115, 4-(4-(dimethylamino)-3-methylphenyl)-N-((5-(2,6-dioxopiperidin-3-yl)-4-oxo-5,6-dihydro-4H-thieno[3,4-c]pyrrol-1-yl)methyl)butanamide] was below 25%.

`CN(C)c1cc(NC(=O)NCc2cc3c(s2)C(=O)N(C2CCC(=O)NC2=O)C3)ccc1C(F)(F)F` (stereo not drawn) [II-55, 1-(3-(dimethylamino)-4-(trifluoromethyl)phenyl)-3-((5-(2,6-dioxopiperidin-3-yl)-6-oxo-5,6-dihydro-4H-thieno[2,3-c]pyrrol-2-yl)methyl)urea]: the cytotoxicity at 1 µM is above 80%.

With `Cc1cc(C(=O)C(=O)NCc2scc3c2CN(C2CCC(=O)NC2=O)C3=O)ccc1C(C)(C)C` (stereo not drawn) [Compound I-27, 2-(3-methyl-4-(tert-butyl)phenyl)-N-((5-(2,6-dioxopiperidin-3-yl)-4-oxo-5,6-dihydro-4H-thieno[3,4-c]pyrrol-1-yl)methyl)-2-oxoacetamide], the cytotoxicity at 1 µM was above 80%. The value for `O=C1CCC(N2Cc3c(CNC(=O)C(=O)c4ccccc4F)cccc3C2=O)C(=O)N1` (stereo not drawn) [Compound I-82, 2-(2-fluorophenyl)-N-((2-(2,6-dioxopiperidin-3-yl)-1-oxoisoindolin-4-yl)methyl)-2-oxoacetamide] was 25 to 50%. The value for `CC(C)c1ccc(C(C(=O)NCc2scc3c2CN(C2CCC(=O)NC2=O)C3=O)C(C)C)cc1` (stereo not drawn) [II-106, N-((5-(2,6-dioxopiperidin-3-yl)-4-oxo-5,6-dihydro-4H-thieno[3,4-c]pyrrol-1-yl)methyl)-2-(4-isopropylphenyl)-3-methylbutanamide] was below 25%. The figure for `CC(C)(C)c1ccc(C(=O)C(=O)NCc2cccc3c2CN(C2CCC(=O)NC2=O)C3=O)cc1` (stereo not drawn) [Compound I-28, 2-(4-(tert-butyl)phenyl)-N-((2-(2,6-dioxopiperidin-3-yl)-1-oxoisoindolin-4-yl)methyl)-2-oxoacetamide] is above 80%; for `COc1ccc(C(=O)C(=O)NCc2scc3c2CN(C2CCC(=O)NC2=O)C3=O)cc1` (stereo not drawn) [Compound I-11, 2-(4-methoxyphenyl)-N-((5-(2,6-dioxopiperidin-3-yl)-4-oxo-5,6-dihydro-4H-thieno[3,4-c]pyrrol-1-yl)methyl)-2-oxoacetamide] it is below 25%; for `CN(Cc1cccc2c1CN(C1CCC(=O)NC1=O)C2=O)C(=O)C(=O)c1ccc(C(C)(C)C)cc1` (stereo not drawn) [Compound I-47, 2-(4-(tert-butyl)phenyl)-N-((2-(2,6-dioxopiperidin-3-yl)-1-oxoisoindolin-4-yl)methyl)-N-methyl-2-oxoacetamide] it is below 25%. Take `O=C1CCC(N2Cc3c(csc3CNC(=O)NCc3c(Cl)cccc3Cl)C2=O)C(=O)N1` (stereo not drawn) [II-37, 1-(2,6-dichlorobenzyl)-3-((5-(2,6-dioxopiperidin-3-yl)-4-oxo-5,6-dihydro-4H-thieno[3,4-c]pyrrol-1-yl)methyl)urea]: the cytotoxicity at 1 µM was above 80%.

In the case of `O=C1CCC(N2Cc3cc(CNC(=O)C(=O)c4ccccc4F)ccc3C2=O)C(=O)N1` (stereo not drawn) [Compound I-86, N-((2-(2,6-dioxopiperidin-3-yl)-1-oxoisoindolin-5-yl)methyl)-2-oxo-2-(2-fluorophenyl)acetamide], the cytotoxicity at 1 µM lay in the range of 50 to 80%. The value for `CN(C)c1ccc(C(=O)C(=O)NCc2scc3c2CN(C2CCC(=O)NC2=O)C3=O)cc1` (stereo not drawn) [Compound I-7, 2-(4-dimethylaminophenyl)-N-((5-(2,6-dioxopiperidin-3-yl)-4-oxo-5,6-dihydro-4H-thieno[3,4-c]pyrrol-1-yl)methyl)-2-oxoacetamide] was below 25%; that for `CC(C)(C)c1ccc(C(C(=O)NCc2scc3c2CN(C2CCC(=O)NC2=O)C3=O)C(F)(F)F)cc1` (stereo not drawn) [II-147, 2-(4-(tert-butyl)phenyl)-N-((5-(2,6-dioxopiperidin-3-yl)-4-oxo-5,6-dihydro-4H-thieno[3,4-c]pyrrol-1-yl)methyl)-3,3,3-trifluoropropanamide] was below 25%.

The values above are taken from patent US11345712B2, “Protein-targeting compounds and pharmaceutical compositions thereof, and their therapeutic applications” (BioTheryX, Inc., priority 2019, dated 2022).
